The record followed here is US20090220528A1, “Stimulation of Toll-Like Receptors on T Cells” (THE TRUSTEES OF THE UNIVERISTY OF PENNSYLVANIA CNETER FOR …, priority 2005, published 2009).

Common to all, as to assay type: cell-based, mouse
The subject of assay [1] is activated CD4+ T cells. Put plainly: Survival of activated CD4+ T cells treated with TLR ligands (7-AAD/annexin exclusion). How it is done:
All CD4^+ T cell activation was conducted in complete culture medium composed of RPMI 1640 (Life Technologies, Grand Island, N.Y.), 1.5 μM 2-ME (Sigma-Aldrich, St. Louis, Mo.), 50 μg/ml gentamicin (Life Technologies), and 10% FCS (Mediatech, Washington, D.C.) at 37° C. in 5% CO2. Purified CD4^+ T cells from either BALB/c, MyD88^−/−, or MyD88^+/+ wild-type control littermates were activated on 24-well plates (Costar, Cambridge, Mass.) coated with 1.0 μg/ml CD3ε monoclonal antibody (2C11; BD Biosciences) and 1.0 μg/ml CD28 monoclonal antibody (37.51; BD Biosciences) for 16 hours. In experiments with DO11.10 mice, 1 μg/ml of pOVA, a peptide derived from chicken albumin amino acid residues […] was added to 2×10^6/ml erythrocyte-depleted splenocyte and lymph node cell pools for 16 hours. Following pOVA-induced activation, CD4^+ T cell APC complexes were disrupted with 5 mM EDTA/PBS for 10 minutes at 25° C., washed twice in PBS, and purified with magnetic beads using the MACS CD4^+ T cell isolation kit as described elsewhere herein. Purity of activated DO11.10 CD4^+ T cells exceeded 96%. As described elsewhere herein, the remainder of the contaminants by FACS analysis were CD8^+ T cells, with APCs at <0.1% by RT-PCR.
Following activation, purified CD4^+ T cells were washed twice in PBS and replated in culture medium at 10^6/ml. Cultures were left untreated or treated with either TLR ligands and/or inhibitors for indicated times and concentrations. Following incubation, CD4^+ T cells were washed twice in PBS/2% FBS and stained with CD4-allophycocyanin monoclonal antibody and 7-aminoactinomycin D (7-AAD; BD PharMingen) or annexin (BD PharMingen) and survival was assessed by exclusion of either of these two stains. For absolute live cell counts 50,000 CD45.1^+ splenocytes labeled with anti-CD45.1-PE monoclonal antibody (A20; BD PharMingen) were also added to stained CD4^+ T cell sample FACS tubes just before FACS analysis. Live CD4^+ T cell counts were calculated by taking the ratio of the number of CD4^+CD45.1^−7-ADD^− events collected to the number CD45.1^+ events collected and multiplying by 50,000. Proliferation was measured by CFSE dye dilution as previously described (Wells et al., 1997 J. Clin. Invest. 100:3173).
TLR ligands directly promote the survival of several cell types including neutrophils, DC, and B cells (Lundqvist et al., 2002, Cancer Immunol. Immunother. 51:139; Sabroe et al., 2003, J. Immunol. 170:5268; Grillot et al., 1996, J. Exp. Med. 183:381; Grillot et al., 1996, J. Exp. Med. 183:381). Since it was observed that activated CD4^+ T cells also express TLRs and signal in response to TLR ligands, the next set of experiments were designed to assess whether TLR ligands could directly enhance survival of these cells. DO11.10 CD4^+ T cells, that encode a transgenic TCR specific for a peptide derived from chicken OVA (pOVA), were activated with pOVA-pulsed APCs for 16 hours ex vivo, purified by magnetic beads to remove all non-CD4^+ T cells, and replated in unsupplemented culture medium in the absence or presence of TLR ligands. Survival was then assessed 72 hours following activation (FIG. 3A). Poly(I:C) or CpG DNA induced increases of activated CD4^+ T cell survival from 38% to 71 and 73%, respectively.

In assay [2] the test system is activated CD4+ T cells. The assay can be described thus: NF-κB and MAP kinase signaling analysis (phospho-specific Western blot). As to conditions: anti-CD3/anti-CD28 activated BALB/c CD4+ T cells (FIG. 2). How it is done:
BALB/c CD44^lowCD25^−CD4^+ T cells were activated with plate-bound 1.0 μg/ml anti-CD3 and 1.0 μg/ml anti-CD28 monoclonal antibodies for 16 hours, washed, and rested for 8 hours at 37° C. Activated (1.5×10^6) CD4^+ T cells were then treated with TLR ligands for the indicated times, lysed in 1×SDS loading buffer (Bio-Rad Life Sciences), resolved on a 12% bis-Tris SDS-PAGE gel (Life Technologies), transferred to nitrocellulose filters (Life Technologies), and either probed with rabbit anti-mouse phospho-specific Abs for p-IκBα, p-p38, p-extracellular signal-regulated kinase (ERK) 1/2, or p-C-Jun N-terminal kinase (JNK)/stress-activated protein kinase (SAPK). To assess total amounts of signaling molecules, filters were also probed with either rabbit anti-mouse IκBα, p-38, ERK-1/2, or JNK/SAPK antibodies. Detection was conducted with HRP-conjugated goat ant-rabbit antibodies, ECL reagent (Amersham), and X-OMAT Film (Kodak, Rochester, N.Y.). All antibodies were purchased from Cell Signal Technologies (Beverly, Mass.).
TLR ligands induce the activation of nuclear factor NF-κB and MAP kinases in APCs (Akira, 2003, J. Biol. Chem. 278:38105; Martin et al., 2002 Biochem. Biophys. Acta. 1592:265). The next set of experiments were designed to assess whether TLR ligands could also induce NF-κB and MAP kinase activity in activated CD4^+ T cells (FIG. 2). […]
A general note: A western blot detects proteins with antibodies after separation by electrophoresis.

In assay [3] the test system is activated CD4+ T cells. The assay can be described thus: Analysis of antiapoptotic molecules (Bcl-2 FACS; Bcl-xL, Bcl-3 Western blot). How it is done: For Bcl-2 evaluation, CD4^+ T cells were permeabilized with 0.1% saponin/0.2% FBS/PBS and stained with anti-Bcl-2 PE monoclonal antibody (3F-11; BD PharMingen) or an isotype hamster IgG-PE control (A19-3; BD PharMingen) and staining was analyzed by FACS. Bcl-xL, Bcl-3, and β-actin were analyzed by Western blotting using rabbit anti-mouse Abs specific for BCl-xL (BD Transduction Laboratories, Lexington, Ky.), Bcl-3 (Santa Cruz Biotechnology, Santa Cruz, Calif.), and β-actin (Accurate Labs, Westbury, N.Y.).
Members of the Bcl family are mediators of activated CD4^+ T cell survival. […] Therefore, levels of each of these molecules were measured following TLR ligand treatment of activated CD4^+ T cells (FIGS. 4C and 4D). Bcl-2 protein levels were not changed by TLR ligand treatment relative to untreated activated CD4^+ T cell controls. Additionally, Bcl-3 protein levels were also left unaffected despite the fact that all of the TLR ligands used in the experiment are also used as adjuvants (Mitchell et al., 2001, Nat. Immunol. 2:397). […] Thus, directly mediated activated CD4^+ T cell survival is associated with specific BCl-xL up-regulation.

Take poly(I:C): the “activated CD4+ T cell survival” value with activated CD4+ T cells [1] (72 hours following activation, DO11.10 CD4+ T cells activated with pOVA-pulsed APCs, purified, untreated 38% (FIG. 3A)) is 71%. For the same substance, the “effect on activated CD4+ T cell survival (dose response)” value with activated CD4+ T cells [1] (FIG. 3B, purified activated CD4+ T cells) was “dose-dependent manner”. In the assay on activated CD4+ T cells [1] (T cell-depleted lymph node cells and splenocytes (APC) added), the “activated CD4+ T cell survival in TLR ligand-treated cultures spiked with APCs” value is listed as “significantly increased dose-responsive survival”. Also, in the assay on activated CD4+ T cells [2], the “NF-κB activity (phosphorylation of IκBα)” value was “induce rapid NF-κB activity”; the “phosphorylation of p38 MAPK, ERK 1/2 and JNK/SAPK” value was “able to effect phosphorylation”. Also, in the assay with activated CD4+ T cells [3] (over LPS-treated and untreated activated CD4+ T cells), the Bcl-xL protein result is reported as “significant increases”. The Bcl-3 protein levels entry in the assay on activated CD4+ T cells [3] (relative to untreated activated CD4+ T cell controls) was “not observed”.
